Assay results reported in article PMC8565515, “Dasabuvir Inhibits Human Norovirus Infection in Human Intestinal Enteroids” (mSphere, 2021).
Structures can show the parent of a compound that is named as a salt. Where two headings read alike, the source gives them in different places.

Experiments:
[1] = tested on: GII.4 HuNoV; assay: GII.4 HuNoV infection of HIE monolayers, viral genome equivalents by RT-qPCR; format: cell-based, human norovirus; settings: for activity at 10 µM / EC50: Norovirus; for activity at 10 µM: 24 h, read-out: (%) HuNoV GEs
[2] = tested on: GII.3 HuNoV; assay: microbe, parasite or virus in culture; format: cell-based, human norovirus; settings: Norovirus, read-out: EC50, HuNoV GEs
[3] = tested on: J2 HIE monolayers; format: cell-based; settings: human, 20 h, 50 μM
Procedure: Supplementary file : FIG S2 Cell viability and cytotoxicity of dasabuvir in J2 HIE monolayers. J2 HIE monolayers were treated with DSB at the indicated concentrations for 20 h. Cell viability or cytotoxicity was measured using CellTiter-Glo luminescent cell viability assay or the Cytotoxicity LDH assay kit-WST, respectively. Results were normalized to DMSO control. Values represent the mean ± SD (n = 7). Download FIG S2, TIF file, 0.8 MB.

[4] = tested on: human rotavirus A (RVA) Wa strain; format: cell-based; settings: 20 μM, J2 HIE monolayers, 20 hpi
[5] = tested on: SARS-CoV-2; format: cell-based; settings: VeroE6/TMPRSS2 cells, 20 h
[6] = tested on: VeroE6/TMPRSS2 cells; settings: 20 h
[7] = tested on: HCV of genotype 1; parameters: method as in PMID 25534735; settings: HCV genotype 1 subgenomic replicon; cited from earlier work
[8] = healthy volunteers, 1,000 mg twice a day [BID] for 10 days; read-out: maximum plasma concentration (Cmax); cited from earlier work
[9] = tested on: RdRp of Middle East respiratory syndrome coronavirus (MERS-CoV); settings: cited from earlier work
[10] = tested on: J2 HIE monolayers; assay: Cytotoxicity by LDH assay in J2 HIE monolayers; settings: for (%) Cytotoxicity: compound 10 μM, n = 1, LDH assay, J2 HIE monolayers infected with GII.4 HuNoV, normalized to DMSO control
[11] = tested on: SARS-CoV-2 (WK-521); assay: SARS-CoV-2 infection of J2 HIE monolayers, viral GEs by RT-qPCR; settings: 20 μM, 20 hpi
[12] = compound 10 μM, n = 1, J2 HIE monolayers, GII.4 HuNoV, 24 hpi, normalized to DMSO control

| Compound | activity at 10 µM [1, 12] [%] | (%) Cytotoxicity ([10]; 24 hpi) [%] | other results |
| --- | --- | --- | --- |
| COc1c(-c2ccc3cc(NS(C)(=O)=O)ccc3c2)cc(-n2ccc(=O)[nH]c2=O)cc1C(C)(C)C [Dasabuvir] | 1.14 | -4.83 | EC50 ([1]; J2 + GII.4, 20 hpi, read-out: EC50, HuNoV GEs): 11.7 µM; EC50 ([1]; J3 + GII.4, 20 hpi, read-out: EC50, HuNoV GEs): 12.4 µM; EC50 ([1]; range over GII.4 and GII.3 HuNoV in J2 and J3 HIEs (Fig. 2), read-out: EC50 values, HuNoV infection): 7.55 to 12.4 µM; EC50 ([2]; J2 + GII.3, 20 hpi): 7.55 µM; EC50 ([2]; J3 + GII.3, 20 hpi): 9.85 µM; reduction of cellular ATP (cell viability) [3]: 17%; fold decrease of RVA infection (viral GEs) [4]: 2.75 fold; effect on SARS-CoV-2 infection [5]: inhibition; cytotoxicity [6]: no cytotoxicity; EC50 [7]: < 0.01 µM; Cmax [8]: ~5.61 µM; inhibition of RdRp activity [9]: partially inhibits; increase of LDH release (cytotoxicity) ([10]; 50 μM, 20 h, uninfected J2 monolayers, compared to DMSO control): 10%; fold decrease of SARS-CoV-2 infection (viral GEs) [11]: 26.9 fold |
| CN[C@@H]1[C@H](O)[C@H](NC)[C@H]2O[C@@]3(O)C(=O)C[C@@H](C)O[C@H]3O[C@@H]2[C@H]1O.Cl.Cl [Spectinomycin dihydrochloride] |  | -1.44 | (%) HuNoV GEs [1, 12]: 109.17% |
| O=C(Nc1ncc([N+](=O)[O-])s1)c1ccccc1O [Tizoxanide] | 40 | 2.28 |  |
| COc1ccc([C@H]2OC[C@H]3[C@@H]2CO[C@H]3c2ccc(O[C@@H]3O[C@H](CO)[C@@H](O)[C@H](O)[C@H]3O)c(OC)c2)cc1OC [Forsythin] |  | 1.24 | (%) HuNoV GEs [1, 12]: 52.42% |
| Nc1nc2c(ncn2[C@@H]2O[C@H](CO)[C@@H](O)[C@H]2O)c(=O)[nH]1 [Guanosine] | 32.3 | 0.15 |  |
| CN(C)C[C@H](O)Cn1c2ccc(Br)cc2c2cc(Br)ccc21 (racemic) [Wiskostatin] | 22.9 | 2.02 |  |
| CC1(C)CC[C@]2(C(=O)O)CC[C@]3(C)C(=CC[C@@H]4[C@@]5(C)CC[C@H](O)C(C)(C)[C@@H]5CC[C@]43C)[C@@H]2C1 [Oleanolic Acid] | 82 | 4.14 |  |
| COc1cc(O)c(CC=C(C)C)c(O)c1C(=O)/C=C/c1ccc(O)cc1 [Xanthohumol] | 67.3 | 2.40 |  |
| O=C(Nc1ccc(O)cc1)c1ccccc1O [Osalmid] | 52.1 | 3.16 |  |
| C[C@@]1(O)[C@H](O)[C@@H](CO)O[C@H]1n1ccc(N)nc1=O [2-CMC, 2′-C-methylcytidine] |  |  | effect on HuNoV infection ([1]; 389 μM, J2 monolayers, GII.4 HuNoV, 24 hpi, positive control): completely blocked viral infection; cytotoxicity ([10]; 389 μM, J2 monolayers, 24 hpi): without any cytotoxicity |
| O=C1C[C@@H](c2ccc(O)cc2)Oc2cc(O)cc(O)c21 [Naringenin] | 165 | 1.14 |  |
| CC(C)OC(=O)C1=CN(C(=O)c2ccc(F)c(F)c2)CC(C)(C)c2c1[nH]c1ccccc21 [Turofexorate Isopropyl] | 31.9 | 0.86 |  |
| CC(N)C12CC3CC(CC(C3)C1)C2 (centres unmarked) [Rimantadine hydrochloride] | 40.9 | 2.41 |  |
| Cc1nc(N(C)C(=O)Cc2ccc(-c3ccccn3)cc2)sc1S(N)(=O)=O [Pritelivir] | 64.5 | -1.63 |  |
| CC(C)=O.COC(=O)N[C@H](C(=O)N1CC2(CC2)C[C@H]1c1ncc(-c2ccc3c(c2)C(F)(F)c2cc(-c4ccc5nc([C@@H]6[C@H]7CC[C@H](C7)N6C(=O)[C@@H](NC(=O)OC)C(C)C)[nH]c5c4)ccc2-3)[nH]1)C(C)C [Ledipasvir acetone] |  | 6.17 | (%) HuNoV GEs [1, 12]: 133.29% |
| CCOC(=O)c1c(C)n(C)c2ccc(O)cc12 [Mecarbinate] |  | 0.93 | (%) HuNoV GEs [1, 12]: 102.13% |
| CC1(C)CC[C@]2(C(=O)O)CC[C@]3(C)C(=CC[C@@H]4[C@@]5(C)CCC(=O)C(C)(C)[C@@H]5CC[C@]43C)[C@@H]2C1 [Oleanonic Acid] | 11.9 | -3.05 |  |
| CC(C)c1nc(CN(C)C(=O)N[C@@H](CCN2CCOCC2)C(=O)N[C@H](CC[C@H](Cc2ccccc2)NC(=O)OCc2cncs2)Cc2ccccc2)cs1 [Cobicistat] | 19.8 | -2.34 |  |
| CC[n+]1c(-c2ccccc2)c2cc(N)ccc2c2ccc(N)cc21 [Ethidium bromide] | 21.1 | -1.16 |  |
| CC(C)OC(=O)[C@H](C)N[P@](=O)(CO[C@H](C)Cn1cnc2c(N)ncnc21)Oc1ccccc1 [Tenofovir alafenamide] |  | -0.20 | activity at 10 µM [1]: 55.2% |
| O=S(=O)(CCC(F)=C(F)F)c1ncc(Cl)s1 [Fluensulfone] |  | -2.22 | (%) HuNoV GEs [1, 12]: 63.19% |
| O=c1[nH]c(=O)n([C@H]2C[C@H](O)[C@@H](CO)O2)cc1/C=C/Br [Brivudine] | 34.8 | 4.68 |  |
| Cc1cnc(C(=O)N[C@H]2CCCCC/C=C\[C@@H]3C[C@@]3(C(=O)NS(=O)(=O)C3CC3)NC(=O)[C@@H]3C[C@@H](Oc4nc5ccccc5c5ccccc45)CN3C2=O)cn1 [Paritaprevir] | 45 | -0.33 |  |
| Nc1ncnc2c1ncn2[C@@H]1O[C@H](COP(=O)(O)O)[C@@H](O)[C@H]1O.O [Adenosine 5'-monophosphate monohydrate] | 34.4 | 0.18 |  |
